Test systems include HOP-92 NSCLC; SNB-19 CNS; SK-OV-3 ovarian; COLO 205 colon; NCI-H226 lung; NCI-H522 lung; HOP-62 NSCLC; SF-539 CNS; RPMI-8226 leukemia; HCC-2998 colon; SK-MEL-5 melanoma; CCRF-CEM leukemia; SF-295 CNS; UACC-62 melanoma; KM12 colon; OVCAR-3 ovarian; TK-10 renal; OVCAR-5 ovarian; A549 NSCLC; ACHN renal.
Assay in all cases: NCI tumour cell line growth inhibition, 48 h

SMILES strings stand for the structures.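 Tested at 5 concentrations; 48 h exposure; 96-well plates; endpoints linearly interpolated, else capped at highest concentration. TGI denotes the concentration required for complete inhibition of growth.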

`Nc1ccc(Oc2ccc(C3(c4ccc(Oc5ccc(N)c(O)c5)cc4)C4CC5CC(C4)CC3C5)cc2)cc1O`: the TGI in the test on HOP-92 NSCLC stood at 8.94 µM; with SNB-19 CNS, 7.6 µM; in the test with SK-OV-3 ovarian it was 7.1 µM; in the test with COLO 205 colon, 1.72 µM; in the test on NCI-H226 lung it was 3.62 µM; with NCI-H522 lung, 3.06 µM. Besides, the TGI in the test with HOP-62 NSCLC turned out to be 4.73 µM; in the test on SF-539 CNS, 2.35 µM; with RPMI-8226 leukemia it was 5.64 µM; in the test on HCC-2998 colon, 3.01 µM; in the test with SK-MEL-5 melanoma, 3.02 µM; with CCRF-CEM leukemia it was 6.47 µM. Further, the TGI in the test with SF-295 CNS worked out at 14.9 µM; in the test with UACC-62 melanoma, 7.68 µM; in the test with KM12 colon, 4.59 µM; in the test with OVCAR-3 ovarian, 3.35 µM; with TK-10 renal, 4.54 µM; in the test on OVCAR-5 ovarian it was 5.75 µM. The results for the TGI in the test on A549 NSCLC and with ACHN renal were 3.14 µM and 3.18 µM, respectively.

Take `CCOC(=O)/C(C#N)=c1/s/c(=C(\O)N/N=C/c2ccc(OC)cc2)c(=N)n1-c1ccccc1`: the TGI in the test with HOP-92 NSCLC, in the test on SNB-19 CNS, with SK-OV-3 ovarian, with COLO 205 colon, with NCI-H226 lung and in the test on NCI-H522 lung was greater than 100 µM throughout. The TGI in the test with HOP-62 NSCLC, in the test on SF-539 CNS, with RPMI-8226 leukemia, in the test on HCC-2998 colon, with SK-MEL-5 melanoma and in the test on CCRF-CEM leukemia was greater than 100 µM in each case. Moreover, the TGI in the test with SF-295 CNS, with UACC-62 melanoma, with KM12 colon, in the test with OVCAR-3 ovarian, with TK-10 renal and in the test with OVCAR-5 ovarian was greater than 100 µM each time. Also, the TGI in the test on A549 NSCLC and in the test with ACHN renal was greater than 100 µM each time.

Source of the values: PubChem BioAssay (NCI).
